Data published in patent US7989649B2, “Tumor imaging compounds” (Emory University, priority 2002, dated 2011).
Blank lines part the entries; values can stand above or below the molecule they belong to.

How the values were obtained:
[1] = cited from earlier work
[2] = system: human melanoma transplants; conditions: cited from earlier work
9 L gliosarcoma tumor = conditions: same rodent tumor model, 60 minutes; cited from earlier work
[3] = normal Fischer rats, 60 minutes; cited from earlier work
[4] = healthy Copenhagen rats, 60 minutes
[5] = nude Swiss mice bearing human melanoma transplants, 60 minutes

SMILES: CC(C)(N)C(=O)O [AIB, α-aminoisobutyric acid]
- mean RC in pancreas and kidneys ([1]; rats, within 5-15 minutes post-injection): greater than 1.8
- mean RC in pancreas and kidneys ([2]; mice, within 5-15 minutes post-injection): greater than 1.8

- melting point: 54 to 55 °C
SMILES: CN1C(C)(C(=O)OC(C)(C)C)COS1(=O)=O (stereo not drawn) [Compound 14b, 3,4-dimethyl-1,2,3-oxathiazolidine-4-carboxylic acid tert-butyl ester 2,2-dioxide]

SMILES: CC([11CH3])(N)C(=O)O (stereo not drawn) [[^11C]AIB, [^11C]α-aminoisobutyric acid]
- mean relative concentration (mean RC), brain [1, 4]: 0.2
- mean relative concentration (mean RC), kidneys [1, 4]: 10.3
- mean relative concentration (mean RC), pancreas [1, 4]: 6.0

SMILES: CC(C)(N)C(=O)O [[^14C]AIB]
- mean RC, brain [2, 5]: 0.23
- mean RC, kidneys [2, 5]: 3.4
- mean RC, pancreas [2, 5]: 8.6

SMILES: OC[C@H]1OC(O)[C@H]([18F])[C@@H](O)[C@@H]1O (stereo partly drawn) [[^18F]FDG, 2-[^18F]fluorodeoxyglucose]
- uptake in normal brain (9 L gliosarcoma tumor): 1.30 % ID/g
- uptake in tumor tissue (9 L gliosarcoma tumor): 1.05 % ID/g

SMILES: N[C@]1(C(=O)O)C[C@@H](F)C1 [trans-[^18F]FACBC, trans-1-amino-3-[^18F]fluorocyclobutyl-1-carboxylic acid]
- pancreatic uptake [3]: 3.4 % ID/g
